Results on 22 compounds are retold here after patent US8088801B2, “Aryloazol-2-yl cyanoethylamino compounds, method of making and method of using thereof” (Merial Limited, priority 2007, dated 2012).

Each structure is given as a SMILES string.

The test system of assay [1] is Trichostrongylus colubriformis. The assay can be described thus: Method D: screening against Trichostrongylus colubriformis, L1 larvae in microtitre plate. Particulars: 96 h, 4 days assessment, read-out: motility inhibition; for inhibition at 0.04 ppm: test concentration 0.04 ppm; for inhibition at 0.01 ppm: test concentration 0.01 ppm; for inhibition at 0.15 ppm: test concentration 0.15 ppm. The procedure:
Method D: Screening Method to Test Activity of Compounds Against Trichostrongylus colubriformis.
Twenty L1 Trichostrongylus colubriformis larvae were added to wells of a microtitre plate containing a nutrient medium and the test compound in DMSO. The microtitre plate was then held at 27° C. where the L1 larvae were allowed to develop. An analysis was conducted at 4 days to determine successful development to the L3 stage. Larvae exposed to DMSO and no test compound served as controls. Compounds numbers 1.008, 1.014, 1.042, 1.047, 1.048, 1.073, 2.001, 2.003 and 2.020, gave at least 90% motility inhibition at a test concentration of 0.15 ppm at the 4 days assessment. Compounds numbers 1.001, 1.003, 1.007, 1.011, 1.037, 1.038, 1.043, 1.056, 1.066, 1.070, 1.071, 2.012 and 2.016, gave at least 90% motility inhibition at a test concentration of 0.04 ppm at the 4 days assessment. Compounds numbers 1.012, 1.020, 1.021, 1.033, 1.034, 1.039, 1.064, 1.065, 2.008, 2.009 and 3.005 gave at least 90% motility inhibition at a test concentration of 0.01 ppm at the 4 days assessment. Compounds numbers 1.094, 2.040, 2.048, 2.049, 3.006, 3.009, 3.011 and 3.012 gave at least 90% motility inhibition at a test concentration of 0.0025 ppm at the 4 days assessment.

In assay [2] the test system is Haemonchus contortus. Nature of the assay: Method A: screening against Haemonchus contortus, L1 larvae in microtitre plate. Particulars: 96 h, 4 days assessment, read-out: motility inhibition; for inhibition at 0.01 ppm: test concentration 0.01 ppm; for inhibition at 0.04 ppm: test concentration 0.04 ppm; for inhibition at 0.15 ppm: test concentration 0.15 ppm; for inhibition at 0.0025 ppm: test concentration 0.0025 ppm. The source says:
Method A: Screening Method to Test Activity of Compounds Against Haemonchus contortus.

The test system of assay [3] is Haemonchus contortus. Nature of the assay: Method B: Haemonchus contortus in vivo in Mongolian gerbil, oral gavage. Set-up: species or system Mongolian gerbil (Meriones unguiculatus). The settings on record: 72 h, Mongolian gerbils, read-out: reduction in nematode infestation. Here is the method: Method B: Screening Method to Test Activity of Compounds Against Haemonchus contortus In Vivo in Mongolian Gerbil (Meriones unguiculatus).
Mongolian gerbils, at least five weeks old, were immunosuppressed and artificially infected with ca. 1000 ensheathed Haemonchus contortus third instar larvae. Six days after infection, the Mongolian gerbils were treated by oral gavage with the test compounds, dissolved in a mixture of 2 parts DMSO and 1 part polyethylene glycol (PEG400), at doses of 100 mg/kg and dissolved in pure polyethylene glycol (PEG400) at doses of 10 and 1 mg/kg. Jirds treated only with the placebo (2 parts DMSO and 1 part PEG400 or pure PEG400) served as controls. On day 9 (3 days after treatment) the jirds were euthanized and necropsied for recovery of parasites from the stomach. Efficacy was calculated as the average % reduction in the number of worms in each test group compared with the average number of worms from the control group. […] Compound numbers 1.001, 1.008, 1.012, 1.013 and 1.014 provided at least 95% reduction in nematode infestation in Mongolian gerbils treated by oral gavage with test article at a dose of 100 mg/kg. Compound numbers 1.012, 1.033, 1.064, 2.008, 2.037, 2.038, 2.040, 2.041, 3.001 provided at least 95% reduction in nematode infestation at a dose of 10 mg/kg. Compound numbers 1.094, 2.048, 3.001, 3.007 and 3.009, provided at least 95% reduction in nematode infestation at a dose of 1 mg/kg. Compound numbers 3.005, 3.006, 3.011, 3.012, 3.017 and 3.019, provided at least 95% reduction in nematode infestation at a dose of 0.5 mg/kg.

By inhibition is commonly meant the relative decrease from the control value, in per cent. With `CC(C#N)(Cn1nc2ccc(Cl)cc2n1)NC(=O)c1ccc(OC(F)(F)F)cc1` (centres unmarked) [Compound 1.001, N-[2-(5-Chloro-2H-benzotriazol-2-yl)-1-cyano-1-methylethyl]-4-trifluoromethoxybenzamide], the inhibition at 0.04 ppm in assay [1] is at least 90%. Further, in assay [2], the inhibition at 0.01 ppm was at least 90%. Further, the inhibition in vivo at 100 mg/kg in assay [3] (dose 100 mg/kg, necropsy 3 days after treatment) is at least 95%.

On to `CC(C#N)(Cn1nc2ccc(Br)cc2n1)NC(=O)c1ccc(OC(F)(F)F)cc1` (centres unmarked) [Compound 1.020, N-[2-(5-Bromo-2H-benzotriazol-2-yl)-1-cyano-1-methylethyl]-4-trifluoromethoxybenzamide], for which the inhibition at 0.01 ppm in assay [1] and in assay [2] was at least 90% each time.

For `CC(C#N)(Cn1nc2cc(Cl)cc(C(F)(F)F)c2n1)NC(=O)c1ccc(OC(F)(F)F)cc1` (centres unmarked) [Compound 1.037, N-[2-(6-Chloro-4-trifluoromethyl-2H-benzotriazol-2-yl)-1-cyano-1-methylethyl]-4-trifluoromethoxybenzamide], in assay [1], the inhibition at 0.04 ppm is at least 90%. Further, the inhibition at 0.01 ppm in assay [2] was at least 90%.

Regarding `Cc1cc(Cl)cc2nn(CC(C)(C#N)NC(=O)c3ccc(Oc4ccccc4)cc3)nc12` (centres unmarked) [Compound 1.039, N-[2-(6-Chloro-4-methyl-2H-benzotriazol-2-yl)-1-cyano-1-methylethyl]-4-phenoxybenzamide], the inhibition at 0.01 ppm in assay [1] and in assay [2] was at least 90% each time.

Regarding `CC(C#N)(Cn1nc2cc(Cl)cc(C(F)(F)F)c2n1)NC(=O)c1ccc(Oc2ccccc2)cc1` (centres unmarked) [Compound 1.042, N-[2-(6-Chloro-4-trifluoromethyl-2H-benzotriazol-2-yl)-1-cyano-1-methylethyl]-4-phenoxybenzamide], in assay [1], the inhibition at 0.15 ppm is at least 90%. In assay [2], the inhibition at 0.04 ppm was at least 90%.

Regarding `CC(C#N)(Cn1nc2cccc(Cl)c2n1)NC(=O)c1ccc(OC(F)(F)F)cc1` (centres unmarked) [Compound 1.043, N-[2-(4-Chloro-2H-benzotriazol-2-yl)-1-cyano-1-methylethyl]-4-trifluoromethoxybenzamide], the inhibition at 0.04 ppm in assay [1] and in assay [2] was at least 90% throughout.

In the case of `CCC(C#N)(Cn1nc2ccc(Cl)cc2n1)NC(=O)c1ccc(OC(F)(F)F)cc1` (centres unmarked) [Compound 1.047, N-{1-[(5-Chloro-2H-benzotriazol-2-yl)methyl]-1-cyanopropyl}-4-trifluoromethoxybenzamide], the inhibition at 0.15 ppm in assay [1] is at least 90%. Also, in assay [2], the inhibition at 0.04 ppm is at least 90%.

With `CC(C#N)(Cn1nc2cc(C#N)cc(C(F)(F)F)c2n1)NC(=O)c1ccc(OC(F)(F)F)cc1` (centres unmarked) [Compound 1.056, N-[1-Cyano-2-(6-cyano-4-trifluoromethyl-2H-benzotriazol-2-yl)-1-methylethyl]-4-trifluoromethoxybenzamide], the inhibition at 0.04 ppm in assay [1] and in assay [2] was at least 90% throughout.

In the case of `COc1cc(Cl)c2nn(CC(C)(C#N)NC(=O)c3ccc(OC(F)(F)F)cc3)nc2c1` (centres unmarked) [Compound 1.070, N-[2-(4-Chloro-6-methoxy-2H-benzotriazol-2-yl)-1-cyano-1-methylethyl]-4-trifluoromethoxybenzamide], the inhibition at 0.04 ppm in assay [1] and in assay [2] was at least 90% each time.

Regarding `CC(C#N)(Cn1cc2cc([N+](=O)[O-])ccc2n1)NC(=O)c1ccc(OC(F)(F)F)cc1` (centres unmarked) [Compound 2.001, N-[1-Cyano-1-methyl-2-(5-nitro-2H-indazol-2-yl)ethyl]-4-trifluoromethoxybenzamide], in assay [1], the inhibition at 0.15 ppm is at least 90%. In addition, the inhibition at 0.04 ppm in assay [2] was at least 90%.

Turning to `CC(C#N)(Cn1cc2cc(Cl)cc(Cl)c2n1)NC(=O)c1ccc(OC(F)(F)F)cc1` (centres unmarked) [Compound 2.003, N-[1-Cyano-2-(5,7-dichloro-2H-indazol-2-yl)-1-methylethyl]-4-trifluoromethoxybenzamide], in assay [1], the inhibition at 0.15 ppm is at least 90%. Also, the inhibition at 0.04 ppm in assay [2] was at least 90%.

For the compound `COc1c2cc(Cl)ccc2nn1CC(C)(C#N)NC(=O)c1ccc(OC(F)(F)F)cc1` (centres unmarked) [Compound 2.012, N-[2-(5-Chloro-3-methoxy-2H-indazol-2-yl)-1-cyano-1-methylethyl]-4-trifluoromethoxybenzamide], in assay [1], the inhibition at 0.04 ppm is at least 90%. For the same compound, the inhibition at 0.01 ppm in assay [2] is at least 90%.

As for `COc1c2ccccc2nn1CC(C)(C#N)NC(=O)c1ccc(OC(F)(F)F)cc1` (centres unmarked) [Compound 2.016, N-[1-Cyano-2-(3-methoxy-2H-indazol-2-yl)-1-methylethyl]-4-trifluoromethoxybenzamide], the inhibition at 0.04 ppm in assay [1] and in assay [2] was at least 90% each time.

In the case of `COc1c2cc(Cl)cc(Cl)c2nn1CC(C)(C#N)NC(=O)c1ccc(OC(F)(F)F)cc1` (centres unmarked) [Compound 2.020, N-[1-Cyano-2-(5,7-dichloro-3-methoxy-2H-indazol-2-yl)-1-methylethyl]-4-trifluoromethoxybenzamide], the inhibition at 0.15 ppm in assay [1] and in assay [2] was at least 90% each time.

In the case of `CC(C#N)(Cn1cc2ccc(Cl)cc2n1)NC(=O)c1ccc(OC(F)(F)F)cc1` (centres unmarked) [Compound 2.037, N-[2-(6-Chloro-2H-indazol-2-yl)-1-cyano-1-methylethyl]-4-trifluoromethoxybenzamide], the inhibition at 0.0025 ppm in assay [2] is at least 90%. Further, the inhibition in vivo at 10 mg/kg in assay [3] was at least 95%.

With `CC(C#N)(Cn1cc2ccc(Cl)c(Cl)c2n1)NC(=O)c1ccc(OC(F)(F)F)cc1` (centres unmarked) [Compound 2.045, N-[1-Cyano-2-(6,7-dichloro-2H-indazol-2-yl)-1-methylethyl]-4-trifluoromethoxybenzamide], the inhibition at 0.0025 ppm in assay [2] was at least 90%.

Regarding `Cc1c2ccc(Cl)cc2nn1CC(C)(C#N)NC(=O)c1ccc(OC(F)(F)F)cc1` (centres unmarked) [Compound 2.050, N-[2-(6-Chloro-3-methyl-2H-indazol-2-yl)-1-cyano-1-methylethyl]-4-trifluoromethoxybenzamide], in assay [2], the inhibition at 0.0025 ppm was at least 90%.

In the case of `COc1c2ncc(Cl)cc2nn1CC(C)(C#N)NC(=O)c1ccc(OC(F)(F)F)cc1` (centres unmarked) [Compound 3.001, N-[2-(6-Chloro-3-methoxy-2H-pyrazolo[4,3-b]pyridin-2-yl)-1-cyano-1-methylethyl]-4-trifluoromethoxybenzamide], the inhibition at 0.0025 ppm in assay [2] is at least 90%. Moreover, in assay [3], the inhibition in vivo at 1 mg/kg is at least 95% and the inhibition in vivo at 10 mg/kg was at least 95%.

As for `Cc1c(Br)cnc2nn(CC(C)(C#N)NC(=O)c3ccc(OC(F)(F)F)cc3)nc12` (centres unmarked) [Compound 3.003, N-[2-(6-Bromo-7-methyl-2H-[1,2,3]triazolo[4,5-b]pyridin-2-yl)-1-cyano-1-methylethyl]-4-trifluoromethoxybenzamide], the inhibition at 0.15 ppm in assay [2] was at least 90%.

Take `COc1c2ncc(Br)c(C)c2nn1CC(C)(C#N)NC(=O)c1ccc(OC(F)(F)F)cc1` (centres unmarked) [Compound 3.007, N-[2-(6-Bromo-3-methoxy-7-methyl-2H-pyrazolo[4,3-b]pyridin-2-yl)-1-cyano-1-methylethyl]-4-trifluoromethoxybenzamide]: the inhibition at 0.01 ppm in assay [2] is at least 90%. In addition, the inhibition in vivo at 1 mg/kg in assay [3] is at least 95%.

`COc1c2ncc(Cl)c(C)c2nn1CC(C)(C#N)NC(=O)c1ccc(OC(F)(F)F)cc1` (centres unmarked) [Compound 3.008, N-[2-(6-Chloro-3-methoxy-7-methyl-2H-pyrazolo[4,3-b]pyridin-2-yl)-1-cyano-1-methylethyl]-4-trifluoromethoxybenzamide]: the inhibition at 0.01 ppm in assay [2] is at least 90%.

`Cc1c(Cl)cnc2cn(CC(C)(C#N)NC(=O)c3ccc(OC(F)(F)F)cc3)nc12` (centres unmarked) [Compound 3.010, N-[2-(6-Chloro-7-methyl-2H-pyrazolo[4,3-b]pyridin-2-yl)-1-cyano-1-methylethyl]-4-trifluoromethoxybenzamide]: the inhibition at 0.04 ppm in assay [2] is at least 90%.
